From patent publication US6410581B1, “Disubstituted biphenyloxazolines” (Bayer Aktiengesellschaft, priority 1997, dated 2002)

Assay: log p, n-octanol/water partition coefficient by reverse phase HPLC (H2O/CH3CN)
Format: physicochemical
Details: n-octanol/water, pH 2.3

Row | Structure (SMILES) | chromatographic logP
1 | CCOC(=O)Oc1ccc(-c2ccccc2)cc1Cl [(2-Chloro-4-phenyl-phenyl) ethyl carbonate] | 4.16
2 | CCOC(=O)Oc1ccc(-c2ccccc2)cc1C [(2-Methyl-4-phenyl-phenyl) ethyl carbonate] | 4.04
3 | CCCc1cc(-c2ccccc2)ccc1OC(C)=O [4-acetoxy-3-propyl-biphenyl] | 4.32
4 | CCCc1cc(-c2ccccc2)ccc1OC(=O)OCC [(4-phenyl-2-propyl-phenyl) ethyl carbonate] | 4.76
5 | CCCc1cc(-c2ccc(C(CCl)NC(=O)c3c(F)cccc3F)cc2)ccc1OC(C)=O (centres unmarked) [VI-1, 2,6-Difluoro-N-[2-chloro-1-(4-(4-acetoxy-3-n-propylphenyl)phenyl)ethyl]-benzamide] | 3.92
6 | CCc1cc(-c2ccccc2)ccc1OC(C)=O [4-acetoxy-3-ethyl-biphenyl] | 3.92

Same assay, conditions: n-octanol/water, pH 7.5

Row | Structure (SMILES) | chromatographic logP
7 | C=CCOc1ccc(-c2ccc(C3COC(c4ccccc4C)=N3)cc2)cc1CCC (centres unmarked) [Example I-314] | 6.44
8 | CCOC(=O)Oc1c(Cl)cc(-c2ccccc2)cc1Cl [(2,6-dichloro-4-phenyl-phenyl) ethyl carbonate] | 4.65

Same assay, conditions: pH 7.5

Row | Structure (SMILES) | log p
9 | CCC(C)Oc1ccc(-c2ccc(C3COC(c4ccccc4F)=N3)cc2)cc1Cl (centres unmarked) [Example I-218] | log p: 5.49
10 | CCCOc1ccc(-c2ccc(C3COC(c4ccccc4F)=N3)cc2)cc1Cl (centres unmarked) [Example I-216] | log p: 5.22
11 | C#CC(C)Oc1ccc(-c2ccc(C3COC(c4ccccc4F)=N3)cc2)cc1C (centres unmarked) [Example I-196] | log p: 4.68
12 | CCCc1cc(-c2ccc(C3COC(c4c(F)cccc4Cl)=N3)cc2)ccc1OC(C)CC (centres unmarked) [Example I-86] | log p: 6.62 (pH 7.5)
13 | CC(C)Oc1ccc(-c2ccc(C3COC(c4c(F)cccc4Cl)=N3)cc2)cc1Cl (centres unmarked) [Example I-71] | log p: 5.25 (pH 7.5)
14 | CCCCCCOc1ccc(-c2ccc(C3COC(c4ccccc4F)=N3)cc2)cc1Cl (centres unmarked) [Example I-96] | log p: 6.48 (pH 7.5)
15 | CC(C)COc1ccc(-c2ccc(C3COC(c4ccccc4F)=N3)cc2)cc1Cl (centres unmarked) [Example I-90] | log p: 5.70 (pH 7.5)
16 | C=CCc1cc(-c2ccc(C3COC(c4ccccc4C)=N3)cc2)cc(Cl)c1OC(C)C (centres unmarked) [Example I-146] | log p: 6.75 (pH 7.5)
17 | CCCc1cc(-c2ccc(C3COC(c4c(F)cccc4F)=N3)cc2)ccc1OCc1ccc(C(C)(C)C)cc1 (centres unmarked) [Example I-60] | log p: 7.14 (pH 7.5)
18 | Cc1cc(-c2ccc(C3COC(c4ccccc4C)=N3)cc2)ccc1OC(C)C (centres unmarked) [Example I-70] | log p: 6.02 (pH 7.5)
19 | C=CCOc1ccc(-c2ccc(C3COC(c4ccccc4Br)=N3)cc2)cc1Cl (centres unmarked) [Example I-304] | log p: 5.13
20 | CCCc1cc(-c2ccc(C3COC(c4ccccc4Cl)=N3)cc2)ccc1OC(C)C (centres unmarked) [Example I-240] | log p: 6.35
21 | Cc1cc(-c2ccc(C3COC(c4ccccc4I)=N3)cc2)ccc1OC(C)C (centres unmarked) [Example I-67] | log p: 5.81 (pH 7.5)
22 | C=CCc1cc(-c2ccc(C3COC(c4ccccc4C)=N3)cc2)cc(Cl)c1O (centres unmarked) [II-14] | log p: 4.75
23 | CC(C)Oc1ccc(-c2ccc(C3COC(c4ccccc4F)=N3)cc2)cc1Cl (centres unmarked) [Example I-32] | log p (pH 7.5): 5.04
24 | CCCc1cc(-c2ccc(C3COC(c4ccccc4Cl)=N3)cc2)ccc1OCC(C)C (centres unmarked) [Example I-37] | log p: 6.95 (pH 7.5)
25 | CCC(C)Oc1ccc(-c2ccc(C3COC(c4c(F)cccc4Cl)=N3)cc2)cc1Cl (centres unmarked) [Example I-76] | log p: 5.69 (pH 7.5)
26 | C=CCc1cc(-c2ccc(C3COC(c4c(F)cccc4Cl)=N3)cc2)ccc1OC(C)CC (centres unmarked) [Example I-179] | log p: 6.33
27 | CCCc1cc(-c2ccc(C3COC(c4c(F)cccc4F)=N3)cc2)ccc1OC(C)CC (centres unmarked) [Example I-10] | log p: 6.33 (pH = 7.5)
28 | CCC(C)Oc1ccc(-c2ccc(C3COC(c4ccccc4F)=N3)cc2)cc1C (centres unmarked) [Example I-192] | log p: 5.70
29 | Cc1cc(-c2ccc(C3COC(c4c(F)cccc4Cl)=N3)cc2)ccc1OC(C)C (centres unmarked) [Example I-163] | log p: 5.45
30 | CCCc1cc(-c2ccc(C3COC(c4ccccc4Cl)=N3)cc2)ccc1OC(C)C (centres unmarked) [Example I-36] | log p: 6.35 (pH 7.5)

Row | Structure (SMILES) | log p
31 | CC(C)COc1ccc(-c2ccc(C3COC(c4ccccc4Cl)=N3)cc2)cc1Cl (centres unmarked) [Example I-34] | log p (pH 7.5): 6.03
32 | C=CCOc1ccc(-c2ccc(C3COC(c4ccccc4C)=N3)cc2)cc1C (centres unmarked) [Example I-55] | log p: 5.64 (pH 7.5)
33 | C=CCOc1c(Cl)cc(-c2ccc(C3COC(c4ccccc4Br)=N3)cc2)cc1CC=C (centres unmarked) [Example I-283] | log p: 6.05
34 | CCCc1cc(-c2ccc(C3COC(c4ccccc4I)=N3)cc2)ccc1OC(C)C (centres unmarked) [Example I-57] | log p: 6.59 (pH 7.5)
35 | C=CCc1cc(-c2ccc(C3COC(c4c(F)cccc4Cl)=N3)cc2)ccc1OCCC (centres unmarked) [Example I-176] | log p: 5.98
36 | Cc1cc(-c2ccc(C3COC(c4ccccc4Cl)=N3)cc2)ccc1OC(C)C (centres unmarked) [Example I-12] | log p: 5.56 (pH = 7.5)
37 | C#CC(C)Oc1ccc(-c2ccc(C3COC(c4ccccc4F)=N3)cc2)cc1CCC (centres unmarked) [Example I-209] | log p: 5.32
38 | C=CCc1cc(-c2ccc(C3COC(c4c(F)cccc4F)=N3)cc2)cc(CC=C)c1OC(C)CC (centres unmarked) [Example I-139] | log p: 6.39
39 | CCCc1cc(-c2ccc(C3COC(c4ccccc4F)=N3)cc2)ccc1OCC(C)C (centres unmarked) [Example I-204] | log p: 6.61
40 | CCc1cc(-c2ccc(C3COC(c4c(F)cccc4F)=N3)cc2)ccc1OC(C)C (centres unmarked) [Example I-63] | log p: 5.54 (pH 7.5)
41 | C=CCOc1ccc(-c2ccc(C3COC(c4ccccc4C)=N3)cc2)cc1Cl (centres unmarked) [Example I-155] | log p: 5.47 (pH 7.5)
42 | C=CCc1cc(-c2ccc(C3COC(c4ccccc4Cl)=N3)cc2)cc(C)c1O (centres unmarked) [II-19] | log p: 4.14
43 | CCCc1cc(-c2ccc(C3COC(c4ccccc4C)=N3)cc2)ccc1OCC(C)C (centres unmarked) [Example I-64] | log p: 4.48 (pH 7.5)
44 | C=CCc1cc(-c2ccc(C3COC(c4c(F)cccc4F)=N3)cc2)cc(C)c1O (centres unmarked) [II-12] | log p: 3.83
45 | C=CCc1cc(-c2ccc(C3COC(c4c(F)cccc4Cl)=N3)cc2)ccc1OC(C)C (centres unmarked) [Example I-177] | log p: 5.82
46 | CCC(C)Oc1ccc(-c2ccc(C3COC(c4c(F)cccc4Cl)=N3)cc2)cc1C (centres unmarked) [Example I-165] | log p: 5.93
47 | C=CCc1cc(-c2ccc(C3COC(c4ccccc4Cl)=N3)cc2)ccc1OC(C)C (centres unmarked) [Example I-250] | log p: 5.93
48 | C=CCc1cc(-c2ccc(C3COC(c4c(F)cccc4F)=N3)cc2)ccc1OC(C)CC (centres unmarked) [Example I-59] | log p: 5.95 (pH 7.5)
49 | C=CCc1cc(-c2ccc(C3COC(c4ccccc4Br)=N3)cc2)cc(Cl)c1OC(C)C (centres unmarked) [Example I-281] | log p: 6.35
50 | CCCc1cc(-c2ccc(C3COC(c4ccccc4F)=N3)cc2)ccc1OC(C)C (centres unmarked) [Example I-202] | log p: 6.03
51 | CCCc1cc(-c2ccc(C3COC(c4c(F)cccc4Cl)=N3)cc2)ccc1OCC(C)C (centres unmarked) [Example I-104] | log p: 6.82 (pH 7.5)
52 | CCCc1cc(-c2ccc(C3COC(c4ccccc4Cl)=N3)cc2)ccc1OCC(C)O (centres unmarked) [Example I-39] | log p: 4.47 (pH 7.5)

Row | Structure (SMILES) | log p
53 | C=CCc1cc(-c2ccc(C3COC(c4ccccc4Br)=N3)cc2)ccc1OC(C)C (centres unmarked) [Example I-291] | log p: 6.02
54 | CCCc1cc(-c2ccc(C3COC(c4ccccc4C)=N3)cc2)ccc1OC(C)C (centres unmarked) [Example I-52] | log p: 6.78 (pH 7.5)
55 | CCc1cc(-c2ccc(C3COC(c4c(F)cccc4F)=N3)cc2)ccc1O (centres unmarked) [II-24] | log p: 3.42
56 | CC(C)COc1ccc(-c2ccc(C3COC(c4c(F)cccc4Cl)=N3)cc2)cc1Cl (centres unmarked) [Example I-77] | log p: 5.89 (pH 7.5)
57 | C=CCc1cc(-c2ccc(C3COC(c4ccccc4Cl)=N3)cc2)ccc1OCC(C)C (centres unmarked) [Example I-251] | log p: 6.52
58 | CCCOc1ccc(-c2ccc(C3COC(c4ccccc4F)=N3)cc2)cc1Cl (centres unmarked) [Example I-87] | log p: 5.22 (pH 7.5)
59 | C=CCOc1ccc(-c2ccc(C3COC(c4ccccc4Br)=N3)cc2)cc1CC=C (centres unmarked) [Example I-293] | log p: 5.66
60 | C=CCOc1ccc(-c2ccc(C3COC(c4c(F)cccc4Cl)=N3)cc2)cc1Cl (centres unmarked) [Example I-80] | log p: 4.99 (pH 7.5)
61 | C#CCOc1ccc(-c2ccc(C3COC(c4ccccc4F)=N3)cc2)cc1Cl (centres unmarked) [Example I-221] | log p: 4.16
62 | C#CCOc1ccc(-c2ccc(C3COC(c4c(F)cccc4Cl)=N3)cc2)cc1CC=C (centres unmarked) [Example I-182] | log p: 4.81
63 | C#CC(C)Oc1ccc(-c2ccc(C3COC(c4ccccc4F)=N3)cc2)cc1Cl (centres unmarked) [Example I-222] | log p: 4.58
64 | CCC(C)Oc1ccc(-c2ccc(C3COC(c4ccccc4F)=N3)cc2)cc1Cl (centres unmarked) [Example I-89] | log p: 5.49 (pH 7.5)
65 | CCCc1cc(-c2ccc(C3COC(c4c(F)cccc4Cl)=N3)cc2)ccc1OC(C)C (centres unmarked) [Example I-85] | log p: 6.20 (pH 7.5)
66 | C=CCOc1ccc(-c2ccc(C3COC(c4c(F)cccc4Cl)=N3)cc2)cc1CC=C (centres unmarked) [Example I-181] | log p: 5.49
67 | CC(C)Oc1ccc(-c2ccc(C3COC(c4ccccc4Br)=N3)cc2)cc1Cl (centres unmarked) [Example I-302] | log p: 5.42
68 | Cc1cc(-c2ccc(C3COC(c4ccccc4Cl)=N3)cc2)ccc1OC(C)C (centres unmarked) [Example I-229] | log p: 5.56
69 | C#CCOc1ccc(-c2ccc(C3COC(c4ccccc4C)=N3)cc2)cc1Cl (centres unmarked) [Example I-156] | log p: 4.81 (pH 7.5)
70 | Cc1cc(-c2ccc(C3COC(c4ccccc4F)=N3)cc2)ccc1OCC(C)C (centres unmarked) [Example I-191] | log p: 5.89
71 | CCCc1cc(-c2ccc(C3COC(c4ccccc4Br)=N3)cc2)ccc1OC(C)C (centres unmarked) [Example I-40] | log p: 6.40 (pH 7.5)
72 | CCCCCCOc1ccc(-c2ccc(C3COC(c4ccccc4F)=N3)cc2)cc1Cl (centres unmarked) [Example I-219] | log p: 6.48
73 | C=CCc1cc(-c2ccc(C3COC(c4ccccc4Br)=N3)cc2)cc(Cl)c1OCCCCCC (centres unmarked) [Example I-282] | log p: 7.36

Same assay, conditions: pH not given

Row | Structure (SMILES) | log p
74 | CCCc1cc(-c2ccc(C3COC(c4ccccc4F)=N3)cc2)ccc1OC(C)CC (centres unmarked) [Example I-205] | log p: 6.47
